One assay deals with T1, Progesterone receptor (Bos taurus, UniProt Q690N0).
T1 sequence (Q690N0 whole entry): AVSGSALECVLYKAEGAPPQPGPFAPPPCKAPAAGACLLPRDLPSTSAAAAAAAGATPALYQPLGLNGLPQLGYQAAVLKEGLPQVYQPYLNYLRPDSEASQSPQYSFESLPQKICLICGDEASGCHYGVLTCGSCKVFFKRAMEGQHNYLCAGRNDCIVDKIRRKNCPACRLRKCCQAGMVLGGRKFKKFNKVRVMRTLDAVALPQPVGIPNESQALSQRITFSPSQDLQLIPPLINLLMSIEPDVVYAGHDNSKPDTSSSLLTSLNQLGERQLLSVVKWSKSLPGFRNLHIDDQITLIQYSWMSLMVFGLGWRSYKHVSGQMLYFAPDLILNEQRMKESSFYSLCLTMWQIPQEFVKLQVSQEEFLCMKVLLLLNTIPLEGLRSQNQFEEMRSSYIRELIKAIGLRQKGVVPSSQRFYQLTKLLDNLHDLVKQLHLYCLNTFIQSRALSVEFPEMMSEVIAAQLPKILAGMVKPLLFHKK
The assay can be described thus: DRUGMATRIX: Progesterone radioligand binding (ligand: [3H] R-5020). The format is tissue-based, Uterus. The settings on record: Not Active = under 50% inhibition at 10 µM.

Assay [1] is described as follows: DRUGMATRIX: Leukotriene, BLT (LTB4) radioligand binding (ligand: [3H]LTB4). In kind it is cell membranes, Membrane. Particulars: u-937; Not Active = under 50% inhibition at 10 µM.
In another assay the target is T2, Neutrophil elastase (Homo sapiens, UniProt P08246).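 Also: inhibition of neutrophil elastase enzyme activity, measured with a p-nitroanilide-linked peptide substrate; in other assays of this panel Not Active means under 50% inhibition at 10 µM.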
T2 sequence (P08246 whole entry): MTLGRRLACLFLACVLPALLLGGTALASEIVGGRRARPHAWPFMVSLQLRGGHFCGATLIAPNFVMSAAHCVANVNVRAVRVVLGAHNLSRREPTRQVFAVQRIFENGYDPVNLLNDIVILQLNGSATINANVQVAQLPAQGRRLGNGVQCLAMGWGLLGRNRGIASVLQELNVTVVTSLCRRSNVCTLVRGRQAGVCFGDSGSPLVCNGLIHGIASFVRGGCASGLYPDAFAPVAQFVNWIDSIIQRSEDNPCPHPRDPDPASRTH
In kind it is tissue-based.

A further assay addresses Glycine receptor (Rattus norvegicus, UniProt P22771+P24524+P07727+P20781). In kind it is cell membranes, Wistar, Spinal cord, Membrane.
Assay [2] addresses T3, Nitric oxide synthase, inducible (Mus musculus, UniProt P29477).
T3 sequence (P29477 whole entry): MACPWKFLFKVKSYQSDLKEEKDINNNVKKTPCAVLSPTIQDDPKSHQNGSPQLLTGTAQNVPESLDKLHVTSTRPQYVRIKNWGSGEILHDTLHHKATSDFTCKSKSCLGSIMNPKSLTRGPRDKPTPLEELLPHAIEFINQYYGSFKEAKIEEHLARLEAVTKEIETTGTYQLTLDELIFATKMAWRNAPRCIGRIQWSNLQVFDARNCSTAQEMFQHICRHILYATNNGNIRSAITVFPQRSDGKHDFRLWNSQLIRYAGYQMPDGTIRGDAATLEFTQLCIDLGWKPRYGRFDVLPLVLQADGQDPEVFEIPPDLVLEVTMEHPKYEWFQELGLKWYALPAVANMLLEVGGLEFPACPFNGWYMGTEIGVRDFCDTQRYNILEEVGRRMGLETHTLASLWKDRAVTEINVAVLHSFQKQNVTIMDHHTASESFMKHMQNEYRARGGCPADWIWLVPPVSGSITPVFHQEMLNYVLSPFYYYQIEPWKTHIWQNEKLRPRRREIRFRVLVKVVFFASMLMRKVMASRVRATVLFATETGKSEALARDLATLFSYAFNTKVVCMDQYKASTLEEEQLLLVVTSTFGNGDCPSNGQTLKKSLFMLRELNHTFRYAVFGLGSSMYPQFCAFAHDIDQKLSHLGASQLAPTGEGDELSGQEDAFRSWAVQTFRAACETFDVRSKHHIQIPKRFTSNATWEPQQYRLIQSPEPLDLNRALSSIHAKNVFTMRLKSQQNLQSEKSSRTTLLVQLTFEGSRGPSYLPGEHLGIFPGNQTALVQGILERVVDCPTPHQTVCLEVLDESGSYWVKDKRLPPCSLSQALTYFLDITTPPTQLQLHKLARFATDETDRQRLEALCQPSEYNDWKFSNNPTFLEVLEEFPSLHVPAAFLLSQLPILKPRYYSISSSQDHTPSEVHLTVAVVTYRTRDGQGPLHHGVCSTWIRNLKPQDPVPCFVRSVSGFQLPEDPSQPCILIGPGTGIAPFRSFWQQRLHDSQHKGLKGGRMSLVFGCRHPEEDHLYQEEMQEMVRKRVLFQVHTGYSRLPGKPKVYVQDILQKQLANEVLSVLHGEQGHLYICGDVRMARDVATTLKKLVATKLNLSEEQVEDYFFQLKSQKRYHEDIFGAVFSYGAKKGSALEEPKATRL
Set-up: species or system Escherichia coli.

For assay [3], the target named is 5-hydroxytryptamine receptor 6 (Homo sapiens, UniProt P50406). In kind it is cell membranes, HeLa, Membrane. Also: in other assays of this panel Not Active means under 50% inhibition at 10 µM.
A short description of assay [4]: DRUGMATRIX: Tumor Necrosis Factor (TNF), Non-Selective radioligand binding (ligand: [125I] TNF-alpha). Particulars: u-937; Not Active = under 50% inhibition at 10 µM. The format is cell membranes, Membrane.

Chain of 5-hydroxytryptamine receptor 6 (P50406 whole entry): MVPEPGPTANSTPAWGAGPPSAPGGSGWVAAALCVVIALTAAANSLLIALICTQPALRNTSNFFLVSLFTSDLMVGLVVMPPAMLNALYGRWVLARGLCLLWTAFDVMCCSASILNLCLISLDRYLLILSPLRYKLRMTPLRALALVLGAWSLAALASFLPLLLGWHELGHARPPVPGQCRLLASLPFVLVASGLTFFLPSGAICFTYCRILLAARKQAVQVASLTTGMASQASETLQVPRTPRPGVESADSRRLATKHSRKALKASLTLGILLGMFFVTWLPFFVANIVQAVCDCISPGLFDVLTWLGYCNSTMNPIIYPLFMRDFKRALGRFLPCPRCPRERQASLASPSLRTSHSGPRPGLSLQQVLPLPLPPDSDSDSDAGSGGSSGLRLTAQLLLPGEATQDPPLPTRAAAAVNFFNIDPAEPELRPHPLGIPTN

For the molecule `CCN(CCO)CCCC(C)Nc1ccnc2cc(Cl)ccc12` (configuration not stated) [HYDROXYCHLOROQUINE], the IC50 result (on Progesterone receptor; in assay [1]; against Neutrophil elastase; against Glycine receptor; in assay [2]; in assay [3] (hela)) was “Not Active” throughout. Moreover, the IC50 entry in assay [4] was “Not Active”. The inhibition constant Ki entry in assay [1] and in assay [4] was “Not Active” throughout.

`CC(=O)[C@]1(O)Cc2c(O)c3c(c(O)c2[C@@H](O[C@H]2C[C@H](N)[C@H](O)[C@H](C)O2)C1)C(=O)c1ccccc1C3=O` [IDARUBICIN]: the 50% inhibitory concentration (IC50) entry (at Progesterone receptor; in assay [1]; at Neutrophil elastase; on Glycine receptor; in assay [2]; in assay [3] (hela)) was “Not Active” throughout. In assay [4], the IC50 result was “Not Active”. Further, the Ki result in assay [1] and in assay [4] was “Not Active” in each case.

On to `CC(C)Cn1cnc2c(N)nc3ccccc3c21` [IMIQUIMOD], for which the half-inhibitory concentration (IC50) entry (at Progesterone receptor; in assay [1]; against Neutrophil elastase; against Glycine receptor; in assay [2]; in assay [3] (hela)) was “Not Active” throughout. Besides, the IC50 result in assay [4] was “Not Active”. For the same molecule, the Ki entry in assay [1] and in assay [4] was “Not Active” throughout.

As to `O=C(NCCN1CCOCC1)c1ccc(Cl)cc1` [MOCLOBEMIDE], the concentration for half-maximal inhibition (IC50) result (on Progesterone receptor; in assay [1]; against Neutrophil elastase; against Glycine receptor; in assay [2]; in assay [3] (hela)) was “Not Active” throughout. Moreover, the IC50 result in assay [4] was “Not Active”. In addition, the inhibitory constant (Ki) result in assay [1] and in assay [4] was “Not Active” in each case.

For the molecule `C=CCN1CC[C@]23c4c5ccc(O)c4O[C@H]2/C(=N/N=C2\CC[C@@]4(O)[C@H]6Cc7ccc(O)c8c7[C@@]4(CCN6CC=C)[C@H]2O8)CC[C@@]3(O)[C@H]1C5` [NALOXONAZINE], the 50% inhibitory concentration (IC50) result (at Progesterone receptor; in assay [1]; on Neutrophil elastase; against Glycine receptor; in assay [2]; in assay [3] (hela)) was “Not Active” in each case. The IC50 entry in assay [4] is “Not Active”. Further, the Ki entry in assay [1] and in assay [4] was “Not Active” each time.

For `Cc1ccnc2c1NC(=O)c1cccnc1N2C1CC1` [NEVIRAPINE], the IC50 result (on Progesterone receptor; in assay [1]; on Neutrophil elastase; at Glycine receptor; in assay [2]; in assay [3] (hela)) was “Not Active” throughout. Besides, the IC50 result in assay [4] is “Not Active”. In addition, the Ki entry in assay [1] and in assay [4] was “Not Active” in each case.

In the case of `O=C1CN(/N=C/c2ccc([N+](=O)[O-])o2)C(=O)N1` [NITROFURANTOIN], the concentration for half-maximal inhibition (IC50) entry (at Progesterone receptor; in assay [1]; at Neutrophil elastase; against Glycine receptor; in assay [2]; in assay [3] (hela)) was “Not Active” each time. For the same molecule, the 50% inhibitory concentration (IC50) entry in assay [4] was “Not Active”. The Ki result in assay [1] and in assay [4] was “Not Active” throughout.

On to `C#C[C@]1(O)CC[C@H]2[C@@H]3CCC4=CC(=O)CC[C@@H]4[C@H]3CC[C@@]21C` [NORETHINDRONE], for which the IC50 at Progesterone receptor (read-out: IC50) is 9.34 nM; in assay [1] it was “Not Active”; against Neutrophil elastase it was “Not Active”; on Glycine receptor it was “Not Active”; in assay [2] it was “Not Active”; in assay [3] (hela), “Not Active”. The IC50 result in assay [4] is recorded as “Not Active”. Moreover, the results for the inhibition constant (Ki) (on Progesterone receptor (read-out: Ki); in assay [1]; in assay [4]) were 1.22 nM, “Not Active” and “Not Active”, respectively.

Turning to `O=C(O)CCc1nc(-c2ccccc2)c(-c2ccccc2)o1` [OXAPROZIN], the concentration for half-maximal inhibition (IC50) entry (at Progesterone receptor; in assay [1]; on Neutrophil elastase; against Glycine receptor; in assay [2]; in assay [3] (hela)) was “Not Active” in each case. Also, in assay [4], the IC50 entry is listed as “Not Active”. Also, the Ki result in assay [1] and in assay [4] was “Not Active” each time.

On to `Cc1cc(C(C)(C)C)c(O)c(C)c1CC1=NCCN1` [OXYMETAZOLINE], for which the concentration for half-maximal inhibition (IC50) result is “Not Active” at Progesterone receptor; “Not Active” in assay [1]; “Not Active” on Neutrophil elastase; “Not Active” against Glycine receptor; “Not Active” in assay [2]; 1670 nM in assay [3] (read-out: IC50). In assay [4], the IC50 entry is “Not Active”. Also, the results for the Ki entry in assay [1], in assay [3] (read-out: Ki) and in assay [4] were “Not Active”, 775 nM and “Not Active”, respectively.

Regarding `NC(=O)NC(=O)Cc1ccccc1` [PHENACEMIDE], the half-maximal inhibitory concentration (IC50) result (at Progesterone receptor; in assay [1]; at Neutrophil elastase; against Glycine receptor; in assay [2]; in assay [3] (hela)) was “Not Active” throughout. Moreover, the IC50 result in assay [4] is “Not Active”. Also, the inhibition constant Ki result in assay [1] and in assay [4] was “Not Active” each time.

For the molecule `O=C1c2ccccc2C(=O)C1c1ccccc1` [PHENINDIONE], the IC50 entry (at Progesterone receptor; in assay [1]; against Neutrophil elastase; on Glycine receptor; in assay [2]; in assay [3] (hela)) was “Not Active” in each case. Also, the 50% inhibitory concentration (IC50) result in assay [4] is “Not Active”. Besides, the Ki entry in assay [1] and in assay [4] was “Not Active” each time.

With `CCC1(c2ccccc2)C(=O)NC(=O)NC1=O` [PHENOBARBITAL], the IC50 entry (on Progesterone receptor; in assay [1]; at Neutrophil elastase; at Glycine receptor; in assay [2]; in assay [3] (hela)) was “Not Active” throughout. For the same molecule, the IC50 result in assay [4] is on record as “Not Active”. The Ki result in assay [1] and in assay [4] was “Not Active” each time.

Regarding `c1ccc2c(c1)Nc1ccccc1S2` [PHENOTHIAZINE], the IC50 entry (at Progesterone receptor; in assay [1]; on Neutrophil elastase; on Glycine receptor; in assay [2]; in assay [3] (hela)) was “Not Active” in each case. For the same molecule, the IC50 entry in assay [4] was “Not Active”. The Ki result in assay [1] and in assay [4] was “Not Active” each time.

With `CCN1CCN(C(=O)N[C@@H](C(=O)N[C@@H]2C(=O)N3[C@@H]2SC(C)(C)[C@@H]3C(=O)O)c2ccccc2)C(=O)C1=O` [PIPERACILLIN], the IC50 entry (at Progesterone receptor; in assay [1]; at Neutrophil elastase; at Glycine receptor; in assay [2]; in assay [3] (hela)) was “Not Active” in each case. Besides, the concentration for half-maximal inhibition (IC50) entry in assay [4] is “Not Active”. For the same molecule, the inhibition constant (Ki) result in assay [1] and in assay [4] was “Not Active” throughout.

For orientation: IC50 means the concentration that inhibits the measured activity by half. The term Ki denotes a measure of affinity in units of concentration, obtained from inhibition or displacement.

For the origin of these results see ChEMBL document CHEMBL1909046, “DrugMatrix in vitro pharmacology data”.
